Laboratory results taken from patent publication US10799530B1, “Composition and method for the prevention and treatment of obesity” (Vector Vitale IP LLC, priority 2019, dated 2020).
Several values for one entry are separate records, joined by “and”; a condition that tells them apart may be missing. Identical values can stand only once.

Tests used:
Assay type in all cases: in vivo
rats [1] = test: Body weight, food and water consumption after intraperitoneal administration; conditions: intact rats; 3750 μg of zinc per 1 kg intraperitoneally every other day, 7 injections
Protocol: The current dose was calculated by zinc.

rats [2] = test: Serum insulin level after intraperitoneal administration; conditions: intact rats; 3750 μg of zinc per 1 kg intraperitoneally every other day, 7 injections
Protocol: Animals are placed in cages, 4 per cage, with free access to food/water. […] Administration is performed every other day, in the amount of 7 injections per animal (intraperitoneal method of drug administration).
Samples in volume of 100 μl were incubated in microplate wells at 4° C. overnight. […] Non-specific binding sites were blocked with a 5% fat-free milk blocking solution and incubated for 1 hour at 37° C. After washing, the separate wells of the microplate were loaded with primary rabbit anti-insulin antibodies and incubated for 1 hour at 37° C. After incubation, the microplate wells were washed and loaded with appropriate secondary antibodies conjugated to horseradish peroxidase and incubated for another 1 hour at 37° C. […] The optical density was measured at 492 nm. The insulin concentrations were calculated using the calibration curve generated under the given conditions and human insulin of known concentration.)

rats [3] = test: Area of islets of Langerhans after intraperitoneal administration; conditions: intact rats, day 7 after the last administration
Protocol: Animals are placed in cages, 4 per cage, with free access to food/water. […] Administration is performed every other day, in the amount of 7 injections per animal (intraperitoneal method of drug administration). The dose of the drug injected to each animal was calculated on the basis of the ratio: 3750 μg of zinc per 1 kg of animal body weight.

rats [4] = test: Glucose tolerance test; conditions: fast overnight, one value per animal
Protocol: A glucose tolerance test was performed to determine a potential effect of zinc isotope on the dynamics of glucose concentration in the blood flow. Experimental procedure: laboratory animals are given intragastric injections of either normal saline solution or zinc in saline solution (5 mg/kg) in a volume of 2 ml. After that, 60 minutes after the aforementioned injections, the basal level of glucose is measured and a glucose solution is injected in an amount of 3 g/kg in a volume of 2 ml using the same route of administration. The blood glucose levels are measured again 60 minutes after injecting the glucose solution.

Compound: zinc asparaginate [^64Zne]
- Body weight of rats (rats [1]): significant increase in the body weight
- Serum insulin levels at day 7 after the withdrawal (rats [2]): significant increase in the insulin levels
- Serum insulin levels on the first day after the drug withdrawal (rats [2]): slightly higher than in the group of intact animals
- Area of islets of Langerhans compared to the control group and the zinc acetate group (rats [3]): significant increase in the islet area

Compound: CC(=O)[O-].CC(=O)[O-].[Zn+2] [Zn acetate, Zinc acetate, reference compound]
- Glucose tolerance test, 60 min (1 h after glucose administration) (rats [4]; effector dose 5 mg/kg in 2 ml, glucose 3 g/kg body weight in 2 ml): also dropped, though not so strongly and 7.2 and 6.9 and 7.3 and 6.8
- Glucose tolerance test, 0 min (1 h after effector administration) (rats [4]; effector dose 5 mg/kg in a volume of 2 ml): 4.6 and 5.2 (2×) and 4.9 and 5.1
- Serum insulin levels at day 7 after the withdrawal (rats [2]): drop in the insulin levels to the value of those of intact/control animals
- Serum insulin levels on the first day after the drug withdrawal (rats [2]): significant increase
